Laboratory results as given in patent publication US9175003B2, “Substituted azoanthracene derivatives and intermediates for preparation thereof” (TransTech Pharma, LLC, priority 2009, dated 2015).

What follows are molecules tested against human GLP-1 receptor (Homo sapiens (Human), UniProt P43220). Settings: read-out: Mean EC50; cAMP, HTRF detection, 30 min at 37° C., HEK-293 cells expressing cloned human GLP-1 receptor.
Chain of human GLP-1 receptor (P43220 24-463): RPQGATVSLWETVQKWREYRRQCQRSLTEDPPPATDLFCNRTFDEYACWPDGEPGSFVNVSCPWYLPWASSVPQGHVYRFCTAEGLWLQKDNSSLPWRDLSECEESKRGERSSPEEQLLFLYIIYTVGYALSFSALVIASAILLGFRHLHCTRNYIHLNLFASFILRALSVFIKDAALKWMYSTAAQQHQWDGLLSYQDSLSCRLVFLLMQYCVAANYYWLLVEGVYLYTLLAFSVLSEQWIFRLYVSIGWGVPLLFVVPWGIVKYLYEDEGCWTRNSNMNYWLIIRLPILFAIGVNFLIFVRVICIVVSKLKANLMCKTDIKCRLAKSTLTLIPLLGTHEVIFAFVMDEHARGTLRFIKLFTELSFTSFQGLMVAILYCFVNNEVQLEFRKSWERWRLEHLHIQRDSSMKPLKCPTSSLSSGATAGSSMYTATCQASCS

Compound | EC50 [nM]
CC[C@@H](c1ccccc1)N1Cc2cc3c(cc2C[C@H]1C(=O)N[C@@H](Cc1ccc(-c2ccnc(C)c2C)cc1)C(=O)O)OC[C@H](c1ccc(OCc2cccnc2)cc1)O3 [Example 169, (S)-3-[4-(2,3-Dimethyl-pyridin-4-yl)-phenyl]-2-({(3S,8S)-7-((S)-1-phenyl-propyl)-3-[4-(pyridin-3-ylmethoxy)-phenyl]-2,3,6,7,8,9-hexahydro-[1,4]dioxino[2,3-g]isoquinoline-8-carbonyl}-amino)-propionic acid] | 116
Cc1nccc(-c2ccc(C[C@H](NC(=O)[C@@H]3Cc4cc5c(cc4CN3C(=O)c3nc[nH]n3)O[C@@H](c3ccc(OCc4ccc(Cl)c(Cl)c4)cc3)CO5)C(=O)O)cc2)c1C [Example 332, (S)-2-{[(3S,8S)-3-[4-(3,4-Dichloro-benzyloxy)-phenyl]-7-(1H-[1,2,4]triazole-3-carbonyl)-2,3,6,7,8,9-hexahydro-[1,4]dioxino[2,3-g]isoquinoline-8-carbonyl]-amino}-3-[4-(2,3-dimethyl-pyridin-4-yl)-phenyl]-propionic acid] | 66
Cc1nccc(Oc2ccc(C[C@H](NC(=O)[C@@H]3Cc4cc5c(cc4CN3C(=O)N[C@@H](C)c3ccccc3)O[C@@H](c3ccc(OCc4ccc(Cl)c(Cl)c4)cc3)CO5)C(=O)O)cc2)c1C [Example 335, (S)-2-{[(3S,8S)-3-[4-(3,4-Dichloro-benzyloxy)-phenyl]-7-((S)-1-phenyl-ethylcarbamoyl)-2,3,6,7,8,9-hexahydro-[1,4]dioxino[2,3-g]isoquinoline-8-carbonyl]-amino}-3-[4-(2,3-dimethyl-pyridin-4-yloxy)-phenyl]-propionic acid] | 115
CC[C@@H](c1ccccc1)N1Cc2cc3c(cc2C[C@H]1C(=O)N[C@@H](Cc1ccc(-c2ccnc(CO)c2)cc1)C(=O)O)OC[C@H](c1ccc(OCc2ccc(Cl)c(Cl)c2)cc1)O3 [Example 206, (S)-2-{[(3S,8S)-3-[4-(3,4-Dichloro-benzyloxy)-phenyl]-7-((S)-1-phenyl-propyl)-2,3,6,7,8,9-hexahydro-[1,4]dioxino[2,3-g]isoquinoline-8-carbonyl]-amino}-3-[4-(2-hydroxymethyl-pyridin-4-yl)-phenyl]-propionic acid] | 61
Cc1nccc(-c2ccc(C[C@H](NC(=O)[C@@H]3Cc4cc5c(cc4CN3C(=O)N[C@H](C)c3ccccc3)O[C@@H](c3ccc(OCc4cccc(Cl)c4Cl)cc3)CO5)C(=O)O)cc2)c1C [Example 369, (S)-2-{[(3S,8S)-3-[4-(2,3-Dichloro-benzyloxy)-phenyl]-7-((R)-1-phenyl-ethylcarbamoyl)-2,3,6,7,8,9-hexahydro-[1,4]dioxino[2,3-g]isoquinoline-8-carbonyl]-amino}-3-[4-(2,3-dimethyl-pyridin-4-yl)-phenyl]-propionic acid] | 112
Cc1nccc(-c2ccc(C[C@H](NC(=O)[C@@H]3Cc4cc5c(cc4CN3C(=O)C3Cc4ccccc4C3)O[C@@H](c3ccc(OCc4ccc(Cl)c(Cl)c4)cc3)CO5)C(=O)O)cc2)c1C [Example 282, (S)-2-{[(3S,8S)-3-[4-(3,4-Dichloro-benzyloxy)-phenyl]-7-(indane-2-carbonyl)-2,3,6,7,8,9-hexahydro-[1,4]dioxino[2,3-g]isoquinoline-8-carbonyl]-amino}-3-[4-(2,3-dimethyl-pyridin-4-yl)-phenyl]-propionic acid] | 198
Cc1cc(C(=O)N2Cc3cc4c(cc3C[C@H]2C(=O)N[C@@H](Cc2ccc(Oc3ccnc(C)c3C)cc2)C(=O)O)OC[C@H](c2ccc(OCc3ccc(Cl)c(Cl)c3)cc2)O4)n(C)n1 [Example 266, (S)-2-{[(3S,8S)-3-[4-(3,4-Dichloro-benzyloxy)-phenyl]-7-(2,5-dimethyl-2H-pyrazole-3-carbonyl)-2,3,6,7,8,9-hexahydro-[1,4]dioxino[2,3-g]isoquinoline-8-carbonyl]-amino}-3-[4-(2,3-dimethyl-pyridin-4-yloxy)-phenyl]-propionic acid] | 132
Cc1nc(NC(=O)[C@@H]2CCCN2)sc1S(=O)(=O)N1Cc2cc3c(cc2C[C@H]1C(=O)N[C@@H](Cc1ccc(-c2ccc(C#N)cc2)cc1)C(=O)O)OCC(c1ccc(OCc2ccc(Cl)c(Cl)c2)cc1)O3 (stereo partly shown) [Example 71] | 477
Cc1nc(NC(=O)C2CCC2)sc1S(=O)(=O)N1Cc2cc3c(cc2C[C@H]1C(=O)N[C@@H](Cc1ccc(-c2ccc(C#N)cc2)cc1)C(=O)O)OCC(c1ccc(OCc2ccc(Cl)c(Cl)c2)cc1)O3 (stereo in doubt) [Example 55, (S)-3-(4′-Cyano-biphenyl-4-yl)-2-({(S)-7-[2-(cyclobutanecarbonyl-amino)-4-methyl-thiazole-5-sulfonyl]-3-[4-(3,4-dichloro-benzyloxy)-phenyl]-2,3,6,7,8,9-hexahydro[1,4]dioxino[2,3-g]isoquinoline-8-carbonyl}-amino)-propionic acid] | 360
CC[C@@H](c1ccccc1)N1Cc2cc3c(cc2C[C@H]1C(=O)N[C@@H](Cc1ccc(-c2ccnc(CF)c2)cc1)C(=O)O)OC[C@H](c1ccc(OCc2ccc(Cl)c(Cl)c2)cc1)O3 [Example 212, (S)-2-{[(3S,8S)-3-[4-(3,4-Dichloro-benzyloxy)-phenyl]-7-((S)-1-phenyl-propyl)-2,3,6,7,8,9-hexahydro-[1,4]dioxino[2,3-g]isoquinoline-8-carbonyl]-amino}-3-[4-(2-fluoromethyl-pyridin-4-yl)-phenyl]-propionic acid] | 34
CC[C@@H](c1ccccc1)N1Cc2cc3c(cc2C[C@H]1C(=O)N[C@@H](Cc1ccc(-c2ccnc(C)c2C)cc1)C(=O)O)OC[C@H](c1ccc(OCc2ccccc2)cc1)O3 [Example 149, (S)-2-{[(3S,8S)-3-(4-Benzyloxy-phenyl)-7-((S)-1-phenyl-propyl)-2,3,6,7,8,9-hexahydro-[1,4]dioxino[2,3-g]isoquinoline-8-carbonyl]-amino}-3-[4-(2,3-dimethyl-pyridin-4-yl)-phenyl]-propionic acid] | 26
Cc1nc(C(=O)N2Cc3cc4c(cc3C[C@H]2C(=O)N[C@@H](Cc2ccc(-c3ccnc(C)c3C)cc2)C(=O)O)OC[C@H](c2ccc(O[C@H]3CC[C@H](C(C)(C)C)CC3)cc2)O4)c(C)o1 [Example 372, (S)-2-{[(3S,8S)-3-[4-(trans-4-tert-Butyl-cyclohexyloxy)-phenyl]-7-(2,5-dimethyl-oxazole-4-carbonyl)-2,3,6,7,8,9-hexahydro-[1,4]dioxino[2,3-g]isoquinoline-8-carbonyl]-amino}-3-[4-(2,3-dimethyl-pyridin-4-yl)-phenyl]-propionic acid] | 64
COCCNc1nc(C)c(S(=O)(=O)N2Cc3cc4c(cc3C[C@H]2C(=O)N[C@@H](Cc2ccc(-c3ccc(C#N)cc3)cc2)C(=O)O)OC[C@H](c2ccc(OCc3ccc(Cl)c(Cl)c3)cc2)O4)s1 [Example 92, (S)-3-(4′-Cyano-biphenyl-4-yl)-2-({(3S,8S)-3-[4-(3,4-dichloro-benzyloxy)-phenyl]-7-[2-(2-methoxy-ethylamino)-4-methyl-thiazole-5-sulfonyl]-2,3,6,7,8,9-hexahydro-[1,4]dioxino[2,3-g]isoquinoline-8-carbonyl}-amino)-propionic acid] | 156
Cc1cc(C(=O)N2Cc3cc4c(cc3C[C@H]2C(=O)N[C@@H](Cc2ccc(-c3ccnc(C)c3C)cc2)C(=O)O)OC[C@H](c2ccc(OCc3ccc(Cl)c(Cl)c3)cc2)O4)n(C)n1 [Example 270, (S)-2-{[(3S,8S)-3-[4-(3,4-Dichloro-benzyloxy)-phenyl]-7-(2,5-dimethyl-2H-pyrazole-3-carbonyl)-2,3,6,7,8,9-hexahydro-[1,4]dioxino[2,3-g]isoquinoline-8-carbonyl]-amino}-3-[4-(2,3-dimethyl-pyridin-4-yl)-phenyl]-propionoc acid] | 142
Cc1nccc(-c2ccc(C[C@H](NC(=O)[C@@H]3Cc4cc5c(cc4CN3C(=O)c3cccc(O)c3)O[C@@H](c3ccc(OCc4ccc(Cl)c(Cl)c4)cc3)CO5)C(=O)O)cc2)c1C [Example 277, (S)-2-{[(3S,8S)-3-[4-(3,4-Dichloro-benzyloxy)-phenyl]-7-(3-hydroxy-benzoyl)-2,3,6,7,8,9-hexahydro-[1,4]dioxino[2,3-g]isoquinoline-8-carbonyl]-amino}-3-[4-(2,3-dimethyl-pyridin-4-yl)-phenyl]-propionic acid] | 143
Cc1nccc(-c2ccc(C[C@H](NC(=O)[C@@H]3Cc4cc5c(cc4CN3C(=O)NC3CCCCC3)O[C@@H](c3ccc(OCc4ccc(Cl)c(Cl)c4)cc3)CO5)C(=O)O)cc2)c1C [Example 252, (S)-2-({(3S,8S)-7-Cyclohexylcarbamoyl-3-[4-(3,4-dichloro-benzyloxy)-phenyl]-2,3,6,7,8,9-hexahydro-[1,4]dioxino[2,3-g]isoquinoline-8-carbonyl}-amino)-3-[4-(2,3-dimethyl-pyridin-4-yl)-phenyl]-propionic acid] | 99
CC[C@@H](c1ccccc1)N1Cc2cc3c(cc2C[C@H]1C(=O)N[C@@H](Cc1ccc(-c2ccnc(C)c2C)cc1)C(=O)O)OC[C@H](c1ccc(OCC2CCCCC2)cc1)O3 [Example 163, (S)-2-{[(3S,8S)-3-(4-Cyclohexylmethoxy-phenyl)-7-((S)-1-phenyl-propyl)-2,3,6,7,8,9-hexahydro-[1,4]dioxino[2,3-g]isoquinoline-8-carbonyl]-amino}-3-[4-(2,3-dimethyl-pyridin-4-yl)-phenyl]-propionic acid] | 113
CCC(C)(C)NC(=O)N1Cc2cc3c(cc2C[C@H]1C(=O)N[C@@H](Cc1ccc(-c2ccnc(C)c2C)cc1)C(=O)O)OC[C@H](c1ccc(OCc2ccc(Cl)c(Cl)c2)cc1)O3 [Example 319, (S)-2-{[(3S,8S)-3-[4-(3,4-Dichloro-benzyloxy)-phenyl]-7-(1,1-dimethyl-propylcarbamoyl)-2,3,6,7,8,9-hexahydro-[1,4]dioxino[2,3-g]isoquinoline-8-carbonyl]-amino}-3-[4-(2,3-dimethyl-pyridin-4-yl)-phenyl]-propionic acid] | 183
CCCCOC(=O)N1Cc2cc3c(cc2C[C@H]1C(=O)N[C@@H](Cc1ccc(Oc2ccnc(C)c2C)cc1)C(=O)O)OC[C@H](c1ccc(OCc2ccc(Cl)c(Cl)c2)cc1)O3 [Example 299, (3S,8S)-8-{(S)-1-Carboxy-2-[4-(2,3-dimethyl-pyridin-4-yloxy)-phenyl]-ethylcarbamoyl}-3-[4-(3,4-dichloro-benzyloxy)-phenyl]-2,3,8,9-tetrahydro-6H-[1,4]dioxino[2,3-g]isoquinoline-7-carboxylic acid butyl ester] | 263
